How the values were obtained:
[1] = tested on: 3T3-L1 preadipocyte; test: retinoic acid induced inhibition of 3T3-L1-preadipocyte differentiation, Oil Red O staining of lipid droplets; type: cell-based, mouse; settings: for Oil Red O absorbance (OD minus blank), well1 / Oil Red O absorbance (OD minus blank), well2 / Oil Red O absorbance (OD minus blank), average: OD 492 nm; for Oil Red O absorbance (OD minus blank), well1 / Oil Red O absorbance (OD minus blank), well2: day 9; for Oil Red O absorbance (OD minus blank), average: day 9, control average 0.5263
Method: The effectiveness of the RAR alpha antagonists Compounds No. 2, 3 and 4 and the RAR pan antagonist Compound No. 1 in blocking the inhibitory effect of all-trans retinoic acid (ATRA) on 3T3-L1 preadipocyte differentiation was investigated.
In this experiment the “Oil Red O”-staining of lipid droplets is used as indicator of the degree of adipogenesis. After conveniently extraction of the dye from the lipid droplets the absorbance was measured with a microplate reader.
3T3-L1-cells (passage 7) of one flask (75 cm^2) were trypsinized by treating the adherent cells with 2 ml 0.25% Trypsin-EDTA. The reaction was stopped with fibroblast growth medium (DMEM/10% Newborn Calf Serum/1% Penicillin/Streptomycin) and 1 ml of this cellsuspension were added to each well of a 12-well-plate. Cells were incubated at 37° C./5% CO2 in an incubator.
One day after cells reach confluency the fibroblast growth medium was removed and adipogenesis initiation medium (DMEM/10% FBS/1 μM Dexamethasone/0.5 mM IBMX/1 μg/ml Insulin) was added into 2 wells (i.e., in duplicate) without further substances (control), into 2 wells with 0.1 μM ATRA+ alternative 1 μM of compound No. 4, Compound No. 2, Compound No. 3 and 1 into 2 wells with 0.1 μM ATRA.
After incubation for two days, the adipogenesis initiation medium was removed and 1.5 ml adipogenesis medium (DMEM/10% FBS/1 μg/ml Insulin) containing the substances as indicated above was added per well. After another three days of incubation, the medium was replaced by adipogenesis medium without any additional substances. The culture medium was replaced every 2 or 3 days.
Nine days after addition of adipogenesis initiation medium, the medium was removed from all wells. Cells were fixed and stained with Oil Red O as follows:
Fix the cells in 10% formalin in PBS, remove formalin, dry completely, wash with PBS, dry at room temperature; Prepare Oil red O working solution by diluting 3 parts Oil Red O stock solution with 2 parts dH2O; Add Oil red O working solution for 1 hour; Remove all Oil Red O and immediately add dH2O, wash with dH2O until water is colourless; Wash with 60% isopropanol, dry completely at room temperature; elute Oil red O by adding 60% isopropaniol/4% Triton X-100 solution for 1.5 hours; transfer to 96 well plate; measure absorption (optical density—OD) at 492 nm (Tecan Spectraflour plus)
The absorbance is reported in Table 2 and FIG. 1 as the difference of the observed OD of extracted dye at 492 nm and a blank well OD value.

[2] = tested on: bovine SVF cells; test: retinoic acid induced inhibition of the differentiation of bovine SVF cells to adipocytes, Oil Red O staining; type: cell-based; settings: for Oil Red O absorbance (OD minus blank), well1 / Oil Red O absorbance (OD minus blank), well2 / Oil Red O absorbance (OD minus blank), average / lipid accumulation compared with control cells: bovine SVF cells; for Oil Red O absorbance (OD minus blank), well1 / Oil Red O absorbance (OD minus blank), well2 / Oil Red O absorbance (OD minus blank), average: OD 530 nm, day 13; for Oil Red O absorbance (OD minus blank), average: control average 0.4465
Method: The efficiency of the RAR antagonists compounds No. 1, 3, 4 and 5 in blocking the antiadipogenic effect of ATRA on bovine cells was investigated. The cells used in this experiment were from a primary culture of the stromal-vascular fraction isolated from intramuscular fat of an Angus steer.
To assess the adipocyte differentiation state, the cells of a 12-well plate were stained with “Oil Red O” and after conveniently extraction of the dye from the lipid droplets the absorbance was measured with a microplate reader.
Cells of a bovine stromal-vascular fraction from intramuscular fat (passage 4) of one flask (75 cm^2) were trypsinized by treating the adherent cells with 2 ml 0.25% Trypsin-EDTA. The reaction was stopped with growth medium (DMEM, 1% (v/v) of antibiotic solution, 50 μg/ml gentamicin sulfate, 33 μM biotin, 17 μM D-pantothenate, 100 μM (+)-sodium L-ascorbate and 10% FCS heat inactivated) and 1.5 ml of this cell suspension were added to each well of a 12-well-plate. Cells were incubated at 37° C./5% CO2 in an incubator.
One day after cells reach confluency the growth medium was removed and adipogenesis initiation medium (growth medium/0.25 μM Dexamethasone/10 μg/ml Insulin/1 μM rosiglitazone) was added into 2 wells (i.e., in duplicate) without further compounds. Adipogenesis initiation medium additionally containing 0.1 μM ATRA was added into 2 wells without further compounds and alternative with 1 μM of compound No. 1, compound No. 3, compound No. 4 and compound No. 5 into 2 wells each of the 12-well plate.
After incubation for three days, the adipogenesis initiation medium was removed and 1.5 ml adipogenesis medium (growth medium/10 μg/ml Insulin/1 μM rosiglitazone) containing the substances as indicated above was added per well. The culture medium was replaced twice a week.
Thirteen days after addition of adipogenesis initiation medium the medium was removed and cells of the 12-well plate were fixed and stained with Oil Red O as previously described.
The absorbance is reported in Table 3 and FIG. 2 as the difference of the observed OD of extracted dye at 530 nm and a blank well OD value.

[3] = target: T1, RARγ (Homo sapiens, UniProt P13631); test: luciferase based RA responsive reporter assay, RARγ; type: cell-based; settings: antagonist
T1 sequence (P13631 1-454): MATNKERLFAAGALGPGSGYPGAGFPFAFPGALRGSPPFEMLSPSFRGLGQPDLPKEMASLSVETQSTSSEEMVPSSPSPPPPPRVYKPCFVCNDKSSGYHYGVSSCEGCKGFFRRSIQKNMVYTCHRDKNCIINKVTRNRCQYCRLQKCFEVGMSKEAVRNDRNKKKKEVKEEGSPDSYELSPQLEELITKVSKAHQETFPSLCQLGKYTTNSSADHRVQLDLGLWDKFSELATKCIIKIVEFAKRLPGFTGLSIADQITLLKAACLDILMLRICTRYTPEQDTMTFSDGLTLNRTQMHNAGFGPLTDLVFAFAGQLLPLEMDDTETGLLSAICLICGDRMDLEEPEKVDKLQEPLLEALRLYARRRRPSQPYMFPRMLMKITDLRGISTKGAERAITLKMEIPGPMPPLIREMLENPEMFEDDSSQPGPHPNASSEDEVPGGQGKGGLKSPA

[4] = target: T2, RARα (Homo sapiens, UniProt P10276); test: luciferase based RA responsive reporter assay, RARα; type: cell-based; settings: antagonist
T2 sequence (P10276 1-462): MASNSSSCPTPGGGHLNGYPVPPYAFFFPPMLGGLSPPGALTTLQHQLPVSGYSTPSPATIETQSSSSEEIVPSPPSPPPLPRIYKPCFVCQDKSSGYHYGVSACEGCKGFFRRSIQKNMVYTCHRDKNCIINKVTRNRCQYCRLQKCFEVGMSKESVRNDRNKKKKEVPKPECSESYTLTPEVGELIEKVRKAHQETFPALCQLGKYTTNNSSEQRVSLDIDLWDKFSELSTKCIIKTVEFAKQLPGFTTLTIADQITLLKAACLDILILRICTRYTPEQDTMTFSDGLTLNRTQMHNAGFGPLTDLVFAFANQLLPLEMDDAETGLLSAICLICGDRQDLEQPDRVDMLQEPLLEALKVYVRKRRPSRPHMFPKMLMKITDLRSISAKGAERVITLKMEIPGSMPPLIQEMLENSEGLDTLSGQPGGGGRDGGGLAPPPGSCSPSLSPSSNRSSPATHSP

[5] = tested on: RARs; test: agonistic activity on RARs; type: cell-based
[6] = target: T3, RARβ (Homo sapiens, UniProt P10826); test: luciferase based RA responsive reporter assay, RARβ; type: cell-based; settings: antagonist
T3 sequence (P10826 1-455): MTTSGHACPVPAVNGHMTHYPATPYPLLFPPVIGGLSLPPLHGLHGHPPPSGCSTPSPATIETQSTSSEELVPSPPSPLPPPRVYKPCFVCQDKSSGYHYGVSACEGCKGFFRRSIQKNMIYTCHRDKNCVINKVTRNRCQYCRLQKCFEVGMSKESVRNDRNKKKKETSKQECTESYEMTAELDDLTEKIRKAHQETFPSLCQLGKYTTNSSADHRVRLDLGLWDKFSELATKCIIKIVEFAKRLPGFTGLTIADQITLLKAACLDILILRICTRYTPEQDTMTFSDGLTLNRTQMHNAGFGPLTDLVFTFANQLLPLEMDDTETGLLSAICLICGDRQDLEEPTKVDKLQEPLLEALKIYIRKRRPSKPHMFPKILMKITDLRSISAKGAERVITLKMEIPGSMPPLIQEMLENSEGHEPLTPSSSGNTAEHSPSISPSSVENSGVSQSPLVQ

Structure (SMILES) | Oil Red O absorbance (OD minus blank), well1 ([1]; 1 μM compound + 0.1 μM ATRA) | Oil Red O absorbance (OD minus blank), well2 ([1]; 1 μM compound + 0.1 μM ATRA) | Oil Red O absorbance (OD minus blank), average ([1]; 1 μM compound + 0.1 μM ATRA) | Oil Red O absorbance (OD minus blank), well1 ([2]; 1 μM compound + 0.1 μM ATRA) | Oil Red O absorbance (OD minus blank), well2 ([2]; 1 μM compound + 0.1 μM ATRA) | Oil Red O absorbance (OD minus blank), average ([2]; 1 μM compound + 0.1 μM ATRA) | lipid accumulation compared with control cells ([2]; 1 μM compound + 0.1 μM ATRA) | also measured
CC1=C(/C=C/C(C)=C/C=C/C(C)=C/C(=O)O)C(C)(C)CCC1 [ATRA, all-trans retinoic acid] |  |  |  |  |  |  |  | amount of differentiated lipid-containing adipocytes ([1]; ATRA 0.1 μM alone): significantly reduced; Oil Red O absorbance (OD minus blank), well1 ([1]; ATRA 0.1 μM alone): 0.0925; Oil Red O absorbance (OD minus blank), well2 ([1]; ATRA 0.1 μM alone): 0.0727; Oil Red O absorbance (OD minus blank), average ([1]; ATRA 0.1 μM alone): 0.0826; Oil Red O absorbance (OD minus blank), well1 ([2]; ATRA 0.1 μM alone): 0.1409; Oil Red O absorbance (OD minus blank), well2 ([2]; ATRA 0.1 μM alone): 0.1924; Oil Red O absorbance (OD minus blank), average ([2]; ATRA 0.1 μM alone): 0.1667; amount of Oil Red O stainable lipid droplets ([2]; ATRA 0.1 μM alone, bovine cells): clearly decreased
Cc1ccc(C2=CC(C)(C)Oc3c(Br)cc(C(=O)Nc4cc(F)c(C(=O)O)c(F)c4)cc32)cc1 [Compound No. 2] | 0.2264 | 0.2267 | 0.2266 |  |  |  |  | 
Cc1ccc(C2=CC(C)(C)Oc3c(Br)cc(C(=O)Nc4ccc(C(=O)O)cc4)cc32)cc1 [Compound No. 4, 4-[[8-bromo-2,2-dimethyl-4-(p-tolyl)chromene-6-carbonyl]amino]benzoic acid] | 0.3361 | 0.3571 | 0.3466 | 0.5411 | 0.6229 | 0.5820 |  | IC50 [3]: 2.35 µM; IC50 [4]: 0.004 µM; agonistic activity on RARs [5]: lacks any significant agonistic activity; IC50 [6]: 2.98 µM
Cc1ccc(C2=CCC(C)(C)c3ccc(C#Cc4ccc(C(=O)O)cc4)cc32)cc1 [Compound No. 1] | 0.1736 | 0.1792 | 0.1764 | 0.2849 | 0.3493 | 0.3171 | lipid accumulation of control cells is not reached | 
CN1c2cc3c(cc2N=C(c2ccc(C(=O)O)cc2)c2ccc4ccccc4c21)C(C)(C)CCC3(C)C [Compound No. 5] |  |  |  | 0.2915 | 0.3318 | 0.3117 | lipid accumulation of control cells is not reached | 
CC1(C)CC=C(c2cnc3ccccc3c2)c2cc(C(=O)Nc3ccc(C(=O)O)cc3)ccc21 [Compound No. 3] | 0.3589 | 0.2996 | 0.3293 | 0.3504 | 0.4044 | 0.3774 | lipid accumulation of control cells is not reached | 

— patent US20140094512A1, “METHOD OF MODULATING THE DEGREE OF ADIPOSE TISSUE DEPOSITED INTRAMUSCULARLY” (priority 2012, published 2014)
